Results published in patent EP0369088A1, “Use of zinc acexamate in the prophylaxis of gastropathy induced by non-steroidal anti-inflammatory drugs” (LABORATORIOS VINAS S.A., priority 1988, dated 1990).

Legend:
Assay type in all cases: in vivo, rat (Sprague Dawley)
Aspirin-induced lesions = assay: Aspirin-induced gastric lesions in the rat, protective effect of ZAC; details: aspirin two doses of 200 mg/kg p.o. 12 hours apart, mean ± SD, n 10, p<0.01; for Macroscopic index: control 3.4 ± 0.2; for Microscopic index: scale 0 to 5, control 3.0 ± 0.3
Excerpt: (§1) In view of the more or less serious gastric intolerance to the different anti-inflammatory drugs, the possibility of inhibiting this side effect by way of the protective action of zinc […]) has been considered. Therefore, the protective effect of ZAC against gastric lesions induced by the most characteristic NSAIDs has been studied. The animal of election was the rat (Sprague Dawley), which was sacrificed after treatment with ZAC and NSAID. The stomach was extirpated, and macro and microscopic evaluations were made. The macroscopic evaluation was made following the method of Adami (1964, Arch. Int. Pharmacodyn., 147: 113-45) with slight modifications, consisting of evaluating the gravity and extension of the lesions, using a points system evaluating the lesions according to the number and/or size thereof. 0 - no lesion 1 - irritation or presence of a hemorrhagic area 2 - from 1 to 5 small ulcers 3 - many small ulcers (more than 5) or 1 large one 4 - many large ulcers 5 - perforated ulcer The overall value of the lesions is obtained by adding up the score of the lesions determined. Half of the stomachs of each animal group was taken for hystological processing, the microscopic lesions being valued according to a scale of 0 to 5, 0 being a lesion-free mucous membrane and 5 representing multiple erosions with hemorrhagic subfusions. two doses of 200 mg/kg p.o. were administered spaced apart by 12 hours. In both cases, ZAC was tested at dosages of: 50, 100 and 150 mg/kg and a control group received water.

[1] = system: Ibuprofen-induced lesions; assay: Ibuprofen-induced gastric lesions in the rat, protective effect of ZAC; details: ibuprofen single 200 mg/kg dose, mean ± SD; for Macroscopic index: n 10, control 2.4 ± 0.3; for Microscopic index: scale 0 to 5, n 5, control 2.8 ± 0.4
Excerpt: as §1, with “a single” for “two doses of”, “dose was administered.” for “p.o. were administered spaced apart by 12 hours.”

[2] = system: Phenylbutazone-induced lesions; assay: Phenylbutazone-induced gastric lesions in the rat, protective effect of ZAC; details: phenylbutazone total dose 80 mg/kg in two halves 2 hours apart, mean ± SD, n 10, control 2.8 ± 0.4, p<0.01
Excerpt: In view of the more or less serious gastric intolerance to the different anti-inflammatory drugs, the possibility of inhibiting this side effect by way of the protective action of zinc acexamate (ZAC) has been considered. Therefore, the protective effect of ZAC against gastric lesions induced by the most characteristic NSAIDs has been studied. The animal of election was the rat (Sprague Dawley), which was sacrificed after treatment with ZAC and NSAID. The stomach was extirpated, and macro and microscopic evaluations were made. The macroscopic evaluation was made following the method of Adami (1964, Arch. Int. Pharmacodyn., 147: 113-45) with slight modifications, consisting of evaluating the gravity and extension of the lesions, using a points system evaluating the lesions according to the number and/or size thereof. 0 - no lesion 1 - irritation or presence of a hemorrhagic area 2 - from 1 to 5 small ulcers 3 - many small ulcers (more than 5) or 1 large one 4 - many large ulcers 5 - perforated ulcer
The overall value of the lesions is obtained by adding up the score of the lesions determined.
An additional, anti-ulcer activity index was calculated for phenylbutazone, obtained by expressing the lesion indexes as an inhibition percentage relative to the control group. The dose-response curve was determined from the percentages and the theoretical ED₅₀ was determined from the curve.
A total dose of 80 mg/kg of phenylbutazone was administered, half at the start of the experiment and the other half after 2 hours. The ZAC doses used were 75, 150 and 300 mg/kg. The animals were sacrificed 4 hours after the last ZAC administration.

[3] = system: Indomethacin-induced lesions; assay: Indomethacin-induced gastric lesions in the rat, protective effect of ZAC; details: ZAC 200 mg/kg, indomethacin total 20 mg/kg in two doses of 10 mg/kg 12 hours apart, mean ± SD, p<0.01
Excerpt: as §1, with “two doses of 200 mg/kg p.o. were administered spaced apart by 12 hours. In both cases, ZAC was tested at dosages of: 50, 100 and 150 mg/kg and a control group received water.” left out

Substance: zinc acexamate [ZAC]
- Macroscopic index (Aspirin-induced lesions; ZAC 50 mg/kg): 2.3 ± 0.3
- Microscopic index (Aspirin-induced lesions; ZAC 50 mg/kg): 1.8 ± 0.2
- Macroscopic index (Aspirin-induced lesions; ZAC 100 mg/kg): 2.1 ± 0.3
- Microscopic index (Aspirin-induced lesions; ZAC 100 mg/kg): 2.0 ± 0.2
- Macroscopic index (Aspirin-induced lesions; ZAC 150 mg/kg): 1.9 ± 0.3
- Microscopic index (Aspirin-induced lesions; ZAC 150 mg/kg): 2.3 ± 0.2
- Macroscopic index ([1]; ZAC 50 mg/kg, p<0.01): 1.6 ± 0.4
- Microscopic index ([1]; ZAC 50 mg/kg, p<0.05): 2.2 ± 0.2
- Macroscopic index ([1]; ZAC 100 mg/kg, p<0.01): 1.7 ± 0.3
- Microscopic index ([1]; ZAC 100 mg/kg, NS): 2.4 ± 0.2 NS
- Macroscopic index ([1]; ZAC 150 mg/kg, p<0.01): 1.5 ± 0.2
- Microscopic index ([1]; ZAC 150 mg/kg, p<0.01): 2.0 ± 0.03
- Macroscopic index ([2]; ZAC 75 mg/kg): 1.3 ± 0.5
- Macroscopic index ([2]; ZAC 150 mg/kg): 0.4 ± 0.3
- Macroscopic index ([2]; ZAC 300 mg/kg): 2.0 ± 0.2
- Macroscopic index ([3]; n 10, control 4.3 ± 0.4): 1.8 ± 0.3
- Microscopic index ([3]; scale 0 to 5, n 5, control 4.0 ± 0.7): 5 2.1 ± 0.2
